In one series the target is human GALK (Homo sapiens, UniProt P51570). Briefly: in vitro GALK. The note with it: for inhibitory activity against GALK (in words): in vitro GALK inhibitory assays, tested up to 50μM. Format: biochemical.
In a further series the test system is human fibroblast cells. As to the kind of experiment: cell tolerance / lethality in fibroblast cells. Format: cell-based.
The subject of series [1] is GALK in patient fibroblast cells. Briefly: intracellular inhibition of GALK measured by reduction of gal-1P accumulation. To be noted: 50μM. Format: cell-based, human.

Each structure is given as a SMILES string.

human GALK, sequence (P51570 whole entry): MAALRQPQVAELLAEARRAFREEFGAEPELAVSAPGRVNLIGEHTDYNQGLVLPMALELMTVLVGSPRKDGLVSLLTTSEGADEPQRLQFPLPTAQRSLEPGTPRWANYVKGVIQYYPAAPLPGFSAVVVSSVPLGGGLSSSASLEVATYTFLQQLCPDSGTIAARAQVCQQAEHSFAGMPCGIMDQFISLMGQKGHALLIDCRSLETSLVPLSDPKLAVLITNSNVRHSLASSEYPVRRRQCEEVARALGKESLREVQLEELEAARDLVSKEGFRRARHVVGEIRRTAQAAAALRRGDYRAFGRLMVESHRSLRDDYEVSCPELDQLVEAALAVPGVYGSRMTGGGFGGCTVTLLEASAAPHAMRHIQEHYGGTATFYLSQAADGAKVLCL

What is called IC50 is the point on the concentration scale where inhibition reaches its midpoint. For `N#CC1=C(SCc2ccccc2)SC(c2ccccc2O)NC1=O` (stereo not shown) [compound 1], on human GALK, the half-maximal inhibitory concentration (IC50) stood at 1.4 ± 0.7 µM.

`N#CC1=C(SCc2ccccc2)SC(c2ccc(O)c(O)c2)NC1=O` (stereo not shown) [compound 2]: the “toxicity in patient cells” value in the series with human fibroblast cells (concentration not given) was “toxicity”. `CSC1=C(C#N)C(=O)NC(c2ccccc2O)S1` (stereo not shown) [compound 3]: the “inhibitory activity against GALK (in words)” value on human GALK is given as “possess inhibitory activities”. Same read-out and setting: as for `N#CC1=C(SCc2ccccc2)SC(c2ccc(C(=O)O)cc2)NC1=O` (stereo not shown) [compound 4], the entry is “possess inhibitory activities”. On the same count and under the same terms, as for `CC1NC(=O)C(C#N)=C(SCc2ccccc2)S1` (stereo not shown) [compound 5], the entry is “did not display any inhibitory activity”; as for `CC1(C)NC(=O)C(C#N)=C(SCc2ccccc2)S1` [compound 6], “did not display any inhibitory activity”; as for `CCCCSC1=C(C#N)C(=O)NC(c2ccccc2O)S1` (stereo not shown) [compound 7], “not all the compounds with hydroxyl groups on the A ring displayed inhibitory activity”. Same read-out and setting: the entry for `N#CC1=C(SCc2ccccc2)SCNC1=O` [compound 8] is “did not display any inhibitory activity”; for `N#CC1=C(SCc2ccc(O)cc2)SC2(CCC(C(=O)O)CC2)NC1=O` (stereo not shown) [compound 9] it is “exhibited no activity”. In the case of `CSC1=C(C#N)C(=O)NC(c2ccc(Cl)cc2Cl)S1` (stereo not shown) [compound 10], the “inhibitory activity against GALK (in words)” value at human GALK was “inactive”. In the case of `CC(=O)Oc1ccc(C2NC(=O)C(C#N)=C(SCc3ccccc3)S2)cc1OC(C)=O` (stereo not shown) [compound 13], the cell toxicity result in the series on human fibroblast cells (50μM or higher concentrations) is “total cell lethality within hours”. Consider `N#CC1=C(SCc2cccc(N3CCOCC3)c2)SC(c2cc(O)ccc2O)NC1=O` (stereo not shown) [compound 27], for which the “inhibition of GALK / lowering of gal-1P in cells (in words)” value in series [1] is reported as “neither 27 nor 29 was able to inhibit GALK or lowered gal-1P”. For the same molecule, the cell tolerance result with human fibroblast cells (up to 100μM) was “well tolerated”. Regarding `N#CC1=C(SCc2cccc(N3CCOCC3)c2)SC(c2ccc(O)cc2)NC1=O` (stereo not shown) [compound 29], the “inhibition of GALK / lowering of gal-1P in cells (in words)” value in series [1] is reported as “neither 27 nor 29 was able to inhibit GALK or lowered gal-1P”. The “cell tolerance / lethality” value in the series with human fibroblast cells (50μM) was “well-tolerated”. The cell lethality entry in the series on human fibroblast cells (100μM or higher) was “lethal to cells”.

(Values after publication PMC3224021 (ACS medicinal chemistry letters, 2011).)
